Experimental data reported in US12617797B2, “Substituted pyrazolo [1,5-a]pyrimidines having multimodal activity against pain” (ESTEVE PHARMACEUTICALS, S.A., priority 2020, dated 2026).

Tests used:
[1] = target: Human α2δ-1 subunit of Cav2.2 calcium channel (Homo sapiens, UniProt P54289); test: Human α2δ-1 subunit of Cav2.2 calcium channel assay ([3H]-gabapentin binding); settings: binding to the α2δ-1 subunit of voltage-gated calcium channels expressed as Ki; + also covers inhibition between 1% and 50%
Human α2δ-1 subunit of Cav2.2 calcium channel, sequence (P54289 25-1103): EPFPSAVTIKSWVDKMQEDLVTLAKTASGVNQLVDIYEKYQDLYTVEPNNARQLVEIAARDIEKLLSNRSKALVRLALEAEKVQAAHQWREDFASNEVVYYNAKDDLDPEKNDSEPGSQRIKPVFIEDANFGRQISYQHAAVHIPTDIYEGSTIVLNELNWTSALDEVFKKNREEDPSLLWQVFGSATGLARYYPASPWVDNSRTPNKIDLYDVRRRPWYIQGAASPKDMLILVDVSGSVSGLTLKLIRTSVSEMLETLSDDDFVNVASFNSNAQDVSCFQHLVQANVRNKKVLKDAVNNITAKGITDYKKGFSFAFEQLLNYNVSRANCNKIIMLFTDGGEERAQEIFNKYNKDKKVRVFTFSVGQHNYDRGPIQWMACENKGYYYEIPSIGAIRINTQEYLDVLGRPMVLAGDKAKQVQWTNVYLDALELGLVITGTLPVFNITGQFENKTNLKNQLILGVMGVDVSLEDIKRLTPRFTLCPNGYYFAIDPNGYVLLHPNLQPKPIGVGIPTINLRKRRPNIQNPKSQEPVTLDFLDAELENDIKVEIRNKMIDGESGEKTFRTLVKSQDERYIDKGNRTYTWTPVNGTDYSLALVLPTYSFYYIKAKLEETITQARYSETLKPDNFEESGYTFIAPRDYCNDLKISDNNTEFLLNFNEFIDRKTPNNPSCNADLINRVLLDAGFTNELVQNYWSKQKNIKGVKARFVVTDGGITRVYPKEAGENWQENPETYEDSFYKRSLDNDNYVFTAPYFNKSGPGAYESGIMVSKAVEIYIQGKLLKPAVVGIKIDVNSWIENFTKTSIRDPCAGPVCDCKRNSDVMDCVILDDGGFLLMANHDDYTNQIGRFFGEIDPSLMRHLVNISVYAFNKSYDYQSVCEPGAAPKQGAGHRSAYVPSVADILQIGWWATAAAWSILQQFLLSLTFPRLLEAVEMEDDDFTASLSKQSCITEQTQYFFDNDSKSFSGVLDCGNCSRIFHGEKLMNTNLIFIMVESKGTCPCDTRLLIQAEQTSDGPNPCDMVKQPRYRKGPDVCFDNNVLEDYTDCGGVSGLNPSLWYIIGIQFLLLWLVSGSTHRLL
Method in brief: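 Membranes enriched in human α2δ-1 incubated with 15 nM [3H]-gabapentin in 10 mM Hepes-KOH pH 7.4, 60 min at 27 °C; nonspecific binding defined with 10 μM pregabalin. Filtration and scintillation counting; % inhibition at 1 or 10 μM, or Ki from five concentrations.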

[2] = target: T1, Human σ1 receptor (Homo sapiens, UniProt Q99720); test: Human σ1 receptor radioligand assay ([3H](+)-pentazocine binding, transfected HEK-293 membranes); settings: binding to σ1 receptor expressed as Ki; + also covers inhibition between 1% and 50%; read-out: σ-1 binding
T1 construct: expressed in transfected cells; host or cells: HEK-293
T1 sequence (Q99720 whole entry): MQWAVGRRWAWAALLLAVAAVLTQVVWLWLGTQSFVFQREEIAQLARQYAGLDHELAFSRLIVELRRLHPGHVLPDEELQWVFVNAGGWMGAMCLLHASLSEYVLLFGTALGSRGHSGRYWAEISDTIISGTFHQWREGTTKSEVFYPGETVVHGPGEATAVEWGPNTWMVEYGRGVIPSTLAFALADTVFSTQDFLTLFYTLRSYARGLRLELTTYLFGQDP
Method in brief: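 Membranes (7 μg) were incubated with 5 nM [3H](+)-pentazocine in 50 mM Tris-HCl pH 8 for 120 min at 37° C. Non-specific binding was defined with 10 μM haloperidol. Values are % inhibition at 1 or 10 μM or Ki from five concentrations, read by filtration and scintillation counting.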

SMILES | Ki [1] | Ki [2]
Cc1nn2c(C3CCCN(Cc4ccc(Cl)cc4)C3)ccnc2c1CNCCO (stereo not drawn) [Example 158, 2-(((7-(1-(4-Chlorobenzyl)piperidin-3-yl)-2-methylpyrazolo[1,5-a]pyrimidin-3-yl)methyl)amino)ethan-1-ol] | 500 to 5000 nM | < 500 nM
Cc1nn2c(C3CCCN(Cc4ccc(Cl)cc4)C3)ccnc2c1CNC(C)C (stereo not drawn) [Example 159, N-((7-(1-(4-Chlorobenzyl)piperidin-3-yl)-2-methylpyrazolo[1,5-a]pyrimidin-3-yl)methyl)propan-2-amine] | 500 to 5000 nM | < 500 nM
Cc1nn2c(C3CCCN(Cc4ccc(Cl)cc4)C3)ccnc2c1CNCC(C)C (stereo not drawn) [Example 160, N-((7-(1-(4-Chlorobenzyl)piperidin-3-yl)-2-methylpyrazolo[1,5-a]pyrimidin-3-yl)methyl)-2-methylpropan-1-amine] | 500 to 5000 nM | < 500 nM
Cc1nn2c(C3CCCN(Cc4ccc(Cl)cc4)C3)ccnc2c1CNCCC(C)C (stereo not drawn) [Example 161, N-((7-(1-(4-Chlorobenzyl)piperidin-3-yl)-2-methylpyrazolo[1,5-a]pyrimidin-3-yl)methyl)-3-methylbutan-1-amine] | 500 to 5000 nM | < 500 nM
Cc1nn2c(C3CCCN(Cc4ccc(Cl)cc4)C3)ccnc2c1CNCCOC(C)C (stereo not drawn) [Example 162, N-((7-(1-(4-Chlorobenzyl)piperidin-3-yl)-2-methylpyrazolo[1,5-a]pyrimidin-3-yl)methyl)-2-isopropoxyethan-1-amine] | 500 to 5000 nM | < 500 nM
COCCCCNCc1c(C)nn2c(C3CCCN(Cc4ccc(Cl)cc4)C3)ccnc12 (stereo not drawn) [Example 163, N-((7-(1-(4-Chlorobenzyl)piperidin-3-yl)-2-methylpyrazolo[1,5-a]pyrimidin-3-yl)methyl)-4-methoxybutan-1-amine] | < 500 nM | < 500 nM
Cc1nn2c(C3CCCN(Cc4ccc(Cl)cc4)C3)ccnc2c1CN1C[C@@H](C)O[C@@H](C)C1 (stereo partly drawn) [Example 164, (2S,6R)-4-((7-(1-(4-Chlorobenzyl)piperidin-3-yl)-2-methylpyrazolo[1,5-a]pyrimidin-3-yl)methyl)-2,6-dimethylmorpholine] | 500 to 5000 nM | 500 to 1000 nM
Cc1nn2c(C3CCCN(Cc4ccc(Cl)cc4)C3)ccnc2c1CN1CCOCC1 (stereo not drawn) [Example 165, 4-((7-(1-(4-Chlorobenzyl)piperidin-3-yl)-2-methylpyrazolo[1,5-a]pyrimidin-3-yl)methyl)morpholine] | > 5000 nM | 500 to 1000 nM
Cc1nn2c(C3CCCN(Cc4ccc(Cl)cc4)C3)ccnc2c1CNCCN1CCOCC1 (stereo not drawn) [Example 166, N-((7-(1-(4-Chlorobenzyl)piperidin-3-yl)-2-methylpyrazolo[1,5-a]pyrimidin-3-yl)methyl)-2-morpholinoethan-1-amine] | 500 to 5000 nM | < 500 nM
Cc1nn2c(C3CCCN(Cc4ccc(Cl)cc4)C3)ccnc2c1CN1CCSCC1 (stereo not drawn) [Example 167, 4-((7-(1-(4-Chlorobenzyl)piperidin-3-yl)-2-methylpyrazolo[1,5-a]pyrimidin-3-yl)methyl)thiomorpholine] | 500 to 5000 nM | < 500 nM
Cc1nn2c(C3CCCN(Cc4ccc(Cl)cc4)C3)ccnc2c1CN1CCS(=O)(=O)CC1 (stereo not drawn) [Example 168, 4-((7-(1-(4-Chlorobenzyl)piperidin-3-yl)-2-methylpyrazolo[1,5-a]pyrimidin-3-yl)methyl)thiomorpholine 1,1-dioxide] | 500 to 5000 nM | 500 to 1000 nM
Cc1nn2c(C3CCCN(Cc4ccc(Cl)cc4)C3)ccnc2c1CN1CCCCC1 (stereo not drawn) [Example 169, 7-(1-(4-Chlorobenzyl)piperidin-3-yl)-2-methyl-3-(piperidin-1-ylmethyl)pyrazolo[1,5-a]pyrimidine] | 500 to 5000 nM | < 500 nM
COCC1CCN(Cc2c(C)nn3c(C4CCCN(Cc5ccc(Cl)cc5)C4)ccnc23)CC1 (stereo not drawn) [Example 170, 7-(1-(4-Chlorobenzyl)piperidin-3-yl)-3-((4-(methoxymethyl)piperidin-1-yl)methyl)-2-methylpyrazolo[1,5-a]pyrimidine] | < 500 nM | < 500 nM
Cc1nn2c(C3CCCN(Cc4ccc(Cl)cc4)C3)ccnc2c1CN1CCC(C(N)=O)CC1 (stereo not drawn) [Example 171, 1-((7-(1-(4-Chlorobenzyl)piperidin-3-yl)-2-methylpyrazolo[1,5-a]pyrimidin-3-yl)methyl)piperidine-4-carboxamide] | 500 to 5000 nM | < 500 nM
Cc1nn2c(C3CCCN(Cc4ccc(Cl)cc4)C3)ccnc2c1CN1CCC(C#N)CC1 (stereo not drawn) [Example 172, 1-((7-(1-(4-Chlorobenzyl)piperidin-3-yl)-2-methylpyrazolo[1,5-a]pyrimidin-3-yl)methyl)piperidine-4-carbonitrile] | > 5000 nM | < 500 nM
Cc1nn2c(C3CCCN(Cc4ccc(Cl)cc4)C3)ccnc2c1CN1CCNC(=O)C1 (stereo not drawn) [Example 173] | > 5000 nM | > 1000 nM
CC(=O)N1CCN(Cc2c(C)nn3c(C4CCCN(Cc5ccc(Cl)cc5)C4)ccnc23)CC1 (stereo not drawn) [Example 174, 1-(4-((7-(1-(4-Chlorobenzyl)piperidin-3-yl)-2-methylpyrazolo[1,5-a]pyrimidin-3-yl)methyl)piperazin-1-yl)ethan-1-one] | 500 to 5000 nM | > 1000 nM
Cc1nn2c(C3CCCN(Cc4ccc(Cl)cc4)C3)ccnc2c1CN1CCN(S(C)(=O)=O)CC1 (stereo not drawn) [Example 175, 7-(1-(4-Chlorobenzyl)piperidin-3-yl)-2-methyl-3-((4-(methylsulfonyl)piperazin-1-yl)methyl)pyrazolo[1,5-a]pyrimidine] | > 5000 nM | > 1000 nM
Cc1nn2c(C3CCCN(Cc4ccc(Cl)cc4)C3)ccnc2c1CNCCCN1CCCC1=O (stereo not drawn) [Example 176, 1-(3-(((7-(1-(4-Chlorobenzyl)piperidin-3-yl)-2-methylpyrazolo[1,5-a]pyrimidin-3-yl)methyl)amino)propyl)pyrrolidin-2-one] | 500 to 5000 nM | > 1000 nM
Cc1nn2c(C3CCCN(Cc4ccc(Cl)cc4)C3)ccnc2c1CNCC1(F)CCOCC1 (stereo not drawn) [Example 177, 1-(7-(1-(4-Chlorobenzyl)piperidin-3-yl)-2-methylpyrazolo[1,5-a]pyrimidin-3-yl)-N-((4-fluorotetrahydro-2H-pyran-4-yl)methyl)methanamine] | 500 to 5000 nM | < 500 nM
Cc1nn2c(C3CCCN(Cc4ccc(Cl)cc4)C3)ccnc2c1CNCCC1CCOCC1 (stereo not drawn) [Example 178, N-((7-(1-(4-Chlorobenzyl)piperidin-3-yl)-2-methylpyrazolo[1,5-a]pyrimidin-3-yl)methyl)-2-(tetrahydro-2H-pyran-4-yl)ethan-1-amine] | 500 to 5000 nM | < 500 nM
Cc1nn2c(C3CCCN(Cc4ccc(Cl)cc4)C3)ccnc2c1CNCC1CCN(S(C)(=O)=O)CC1 (stereo not drawn) [Example 179, 1-(7-(1-(4-Chlorobenzyl)piperidin-3-yl)-2-methylpyrazolo[1,5-a]pyrimidin-3-yl)-N-((1-(methylsulfonyl)piperidin-4-yl)methyl)methanamine] | 500 to 5000 nM | 500 to 1000 nM
CC(=O)N1CCC(CNCc2c(C)nn3c(C4CCCN(Cc5ccccc5)C4)ccnc23)CC1 (stereo not drawn) [Example 180, 1-(4-((((7-(1-Benzylpiperidin-3-yl)-2-methylpyrazolo[1,5-a]pyrimidin-3-yl)methyl)amino)methyl)piperidin-1-yl)ethan-1-one] | 500 to 5000 nM | < 500 nM
Cc1nn2c(C3CCCN(Cc4cccc(F)c4)C3)ccnc2c1CNCC1CCOCC1 (stereo not drawn) [Example 181, 1-(7-(1-(3-Fluorobenzyl)piperidin-3-yl)-2-methylpyrazolo[1,5-a]pyrimidin-3-yl)-N-((tetrahydro-2H-pyran-4-yl)methyl)methanamine] | 500 to 5000 nM | < 500 nM
Cc1nn2c(C3CCCN(Cc4ccc(F)c(F)c4)C3)ccnc2c1CNCC1CCOCC1 (stereo not drawn) [Example 182, 1-(7-(1-(3,4-Difluorobenzyl)piperidin-3-yl)-2-methylpyrazolo[1,5-a]pyrimidin-3-yl)-N-((tetrahydro-2H-pyran-4-yl)methyl)methanamine] | < 500 nM | < 500 nM
Cc1nn2c(C3CCCN(Cc4ccc(C#N)cc4)C3)ccnc2c1CNCC1CCOCC1 (stereo not drawn) [Example 183, 4-((3-(2-Methyl-3-((((tetrahydro-2H-pyran-4-yl)methyl)amino)methyl)pyrazolo[1,5-a]pyrimidin-7-yl)piperidin-1-yl)methyl)benzonitrile] | > 5000 nM | < 500 nM
Cc1nn2c(C3CCCN(Cc4ccc(C(F)(F)F)nc4)C3)ccnc2c1CNCC1CCOCC1 (stereo not drawn) [Example 184, 1-(2-Methyl-7-(1-((6-(trifluoromethyl)pyridin-3-yl)methyl)piperidin-3-yl)pyrazolo[1,5-a]pyrimidin-3-yl)-N-((tetrahydro-2H-pyran-4-yl)methyl)methanamine] | > 5000 nM | < 500 nM
Cc1nn2c(C3CCCN(CC4CCOCC4)C3)ccnc2c1CNCC1CCOCC1 (stereo not drawn) [Example 185, 1-(2-Methyl-7-(1-((tetrahydro-2H-pyran-4-yl)methyl)piperidin-3-yl)pyrazolo[1,5-a]pyrimidin-3-yl)-N-((tetrahydro-2H-pyran-4-yl)methyl)methanamine] | > 5000 nM | > 1000 nM
Cc1nn2c(C3CCCN(Cc4ccc(Cl)cc4Cl)C3)ccnc2c1CN(C)C (stereo not drawn) [Example 186, 1-(7-(1-(2,4-Dichlorobenzyl)piperidin-3-yl)-2-methylpyrazolo[1,5-a]pyrimidin-3-yl)-N,N-dimethylmethanamine] | > 5000 nM | < 500 nM
CCc1nn2c(C3CCCN(Cc4ccc(Cl)cc4)C3)ccnc2c1CNCC1CCOCC1 (stereo not drawn) [Example 187, 1-(7-(1-(4-Chlorobenzyl)piperidin-3-yl)-2-ethylpyrazolo[1,5-a]pyrimidin-3-yl)-N-((tetrahydro-2H-pyran-4-yl)methyl)methanamine] | < 500 nM | < 500 nM
